Test results from US9796719B2, “Compounds and pharmaceutical compositions thereof for the treatment of inflammatory disorders” (GALAPAGOS NV, priority 2013, dated 2017).

target: hENPP2 (UniProtKB/SwissProt Sequence ref Q13822) (Homo sapiens (Human), UniProt Q13822); experiment: LPC hENPP2 assay (choline release, LPC as substrate); format: biochemical
Method: The principle of the assay consists in quantifying the released choline with an enzymatic method using choline oxidase and peroxidase. Choline oxydation by choline oxydase releases betaine and peroxide. The latter is quantified in presence of HRP that converts the peroxide detection agent TOOS and 4-aminoantipyrine into quinoneimine dye. The appearance of quinoneimine dye is measured spectrophotometrically at 555 nm and is proportional to the amount of choline released by ENPP2. Inhibition of ENPP2 will result in a decrease of the signal.
The reaction is terminated and choline quantified by the addition of a 25 μL of a mixture containing 0.6 U/mL of choline oxidase, 0.6 U/mL of peroxydase, 1.8 mM TOOS, 1.2 mM amino-antipyrine, 20 mM EGTA (stop-developer solution) diluted in the buffer described above. […] is read on the Envision after an incubation of 30 min at room temperature (Excitation 555 nm, excitation light=70%).

Row | SMILES | IC50 [nM]
1 | CCc1nc2ccc(N3CC(C(=O)N4CCOCC4)C3)nn2c1N(C)c1nc(-c2ccc(F)cc2)c(C#N)s1 [Cpd 191, 2-((2-ethyl-6-(3-(morpholine-4-carbonyl)azetidin-1-yl)imidazo[1,2-b]pyridazin-3-yl)(methyl)amino)-4-(4-fluorophenyl) thiazole-5-carbonitrile] | 100 to 500
2 | CCc1nc2ccc(N3CCC4(CCN(C(=O)OC(C)(C)C)C4)C3)nn2c1N(C)c1nc(-c2ccc(F)cc2)c(C#N)s1 (stereo not drawn) [Cpd 165, tert-butyl 7-(3-((5-cyano-4-(4-fluorophenyl)thiazol-2-yl)(methyl)amino)-2-ethylimidazo[1,2-b]pyridazin-6-yl)-2,7-diazaspiro[4.4] nonane-2-carboxylate] | 100 to 500
3 | CCc1nc2ccc(N3CCN(CC4CNC(=O)O4)CC3)nn2c1N(C)c1nc(-c2ccc(F)cc2)c(CO)s1 (stereo not drawn) [Cpd 41, 5-((4-(2-ethyl-3-((4-(4-fluorophenyl)-5-(hydroxymethyl)thiazol-2-yl)(methyl)amino)imidazo[1,2-b]pyridazin-6-yl)piperazin-1-yl)methyl) oxazolidin-2-one] | 500 to 1000
4 | CCc1nc2ccc(N3CCC(C(=O)NCCO)C3)nn2c1N(C)c1nc(-c2ccc(F)cc2)cs1 (stereo not drawn) [Cpd 140, 1-(2-ethyl-3-((4-(4-fluorophenyl)thiazol-2-yl)(methyl)amino)imidazo[1,2-b]pyridazin-6-yl)-N-(2-hydroxyethyl) pyrrolidine-3-carboxamide] | > 1000
5 | CCc1nc2cnc(N3CCN(CC(=O)N4CC(F)(F)C4)CC3)cn2c1N(C)c1nc(-c2ccc(F)cc2)c(C#N)s1 [Cpd 3, 2-((6-(4-(2-(3,3-difluoroazetidin-1-yl)-2-oxoethyl)piperazin-1-yl)-2-ethylimidazo[1,2-a]pyrazin-3-yl)(methyl)amino)-4-(4-fluorophenyl) thiazole-5-carbonitrile] | > 1000
6 | CCc1nc2ccc(N3CCC4(CN(C)C(=O)O4)C3)nn2c1N(C)c1nc(-c2ccc(F)cc2)c(C#N)s1 (stereo not drawn) [Cpd 164, 2-((2-ethyl-6-(3-methyl-2-oxo-1-oxa-3,7-diazaspiro[4.4]nonan-7-yl)imidazo[1,2-b]pyridazin-3-yl)(methyl)amino)-4-(4-fluorophenyl) thiazole-5-carbonitrile] | 100 to 500
7 | CCc1nc2ccc(N3CCC(CNC(=O)OC(C)(C)C)CC3)nn2c1N(C)c1nc(-c2ccc(F)cc2)cs1 [Cpd 103, [1-(2-Ethyl-3-{[4-(4-fluoro-phenyl)-thiazol-2-yl]-methyl-amino}-imidazo[1,2-b]pyridazin-6-yl)-piperidin-4-ylmethyl]-carbamic acid tert-butyl ester] | > 1000
8 | CCc1nc2ccc(C3CCN(CC(=O)NC)CC3)nn2c1N(C)c1nc(-c2ccc(F)cc2C#N)cs1 [Cpd 209, 2-(4-(3-((4-(2-cyano-4-fluorophenyl)thiazol-2-yl)(methyl)amino)-2-ethylimidazo[1,2-b]pyridazin-6-yl)piperidin-1-yl)-N-methylacetamide] | 100 to 500
9 | CCc1nc2ccc(C3=CCN(S(C)(=O)=O)CC3)nn2c1N(C)c1nc(-c2ccc(F)cc2C#N)cs1 [Cpd 204, 2-(2-((2-ethyl-6-(1-(methylsulfonyl)-1,2,3,6-tetrahydropyridin-4-yl)imidazo[1,2-b]pyridazin-3-yl)(methyl)amino)thiazol-4-yl)-5-fluorobenzonitrile] | 100 to 500
10 | CCc1nc2ccc(N3CCN(C4CCN(Cc5ccc(OC)cc5)C4=O)CC3)nn2c1N(C)c1nc(-c2ccc(F)cc2)cs1 (stereo not drawn) [Cpd 70, 3-(4-(2-ethyl-3-((4-(4-fluorophenyl)thiazol-2-yl)(methyl)amino)imidazo[1,2-b]pyridazin-6-yl)piperazin-1-yl)-1-(4-methoxybenzyl) pyrrolidin-2-one] | 500 to 1000
11 | CCc1nc2ccc(N3CC(NS(C)(=O)=O)C3)nn2c1N(C)c1nc(-c2ccc(F)cc2)cs1 [Cpd 158, N-(1-(2-ethyl-3-((4-(4-fluorophenyl)thiazol-2-yl)(methyl)amino)imidazo[1,2-b]pyridazin-6-yl)azetidin-3-yl)methane-sulfonamide] | 500 to 1000
12 | CCc1nc2ccc(N3CCC(O)C3)nn2c1N(C)c1nc(-c2ccc(F)cc2)c(CO)s1 (stereo not drawn) [Cpd 185, 1-(2-ethyl-3-((4-(4-fluorophenyl)-5-(hydroxymethyl)thiazol-2-yl)(methyl)amino)imidazo[1,2-b]pyridazin-6-yl)pyrrolidin-3-ol] | > 1000
13 | CCc1nc2ccc(C3CCNCC3)nn2c1N(C)c1nc(-c2ccc(F)cc2C#N)ns1 [Compound 219, 2-(5-((2-ethyl-6-(piperidin-4-yl)imidazo[1,2-b]pyridazin-3-yl)(methyl)amino)-1,2,4-thiadiazol-3-yl)-5-fluorobenzonitrile] | > 1000
14 | CCc1nc2ccc(N3CC[C@@H](NCC(=O)N(C)C)C3)nn2c1N(C)c1nc(-c2ccc(F)cc2)c(C#N)s1 [Cpd 177, (R)-2-(1(3-((5-cyano-4-(4-fluorophenyl)thiazol-2-yl)(methyl)amino)-2-ethylimidazo[1,2-b]pyridazin-6-yl)pyrrolidin-3-ylamino)-N,N-dimethylacetamide] | 0.01 to 100
15 | CCc1nc2ccc(N3CC(NCC(=O)N4CC(O)C4)C3)nn2c1N(C)c1nc(-c2ccc(F)cc2)c(C#N)s1 [Cpd 189, 2-((2-ethyl-6-(3-(2-(3-hydroxyazetidin-1-yl)-2-oxoethylamino)azetidin-1-yl)imidazo[1,2-b]pyridazin-3-yl)(methyl)amino)-4-(4-fluorophenyl) thiazole-5-carbonitrile] | 0.01 to 100
16 | CCc1nc2ccc(N3C[C@H]4C[C@H]3CN4C(=O)OC(C)(C)C)nn2c1N(C)c1nc(-c2ccc(F)cc2)cs1 [Cpd 74, tert-butyl-(1R,4S)-5-(2-ethyl-3-((4-(4-fluorophenyl)thiazol-2-yl)(methyl)amino)imidazo[1,2-b]pyridazin-6-yl)-2,5-diazabicyclo[2.2.1] heptane-2-carboxylate] | > 1000
17 | CCc1nc2ccc(N3CCC(N4C[C@@H](C)O[C@@H](C)C4)C3)nn2c1N(C)c1nc(-c2ccc(F)cc2)c(C#N)s1 (stereo partly drawn) [Compound 178, 2-((6-(3-((2S,6R)-2,6-dimethylmorpholino)pyrrolidin-1-yl)-2-ethylimidazo[1,2-b]pyridazin-3-yl)(methyl)amino)-4-(4-fluorophenyl)thiazole-5-carbonitrile] | 500 to 1000
18 | CCc1nc2ccc(C3CCN(CC(=O)N(C)C)CC3)nn2c1N(C)c1nc(-c2ccc(F)cc2)c(CO)s1 [Cpd 203, 2-(4-(2-ethyl-3-((4-(4-fluorophenyl)-5-(hydroxymethyl)thiazol-2-yl)(methyl)amino)imidazo[1,2-b]pyridazin-6-yl)piperidin-1-yl)-N,N-dimethylacetamide] | 500 to 1000

Further lines, results first:

Row | IC50 [nM] | SMILES
19 | > 1000 | CCc1nc2ccc(N3CCC4(CCCCC4)CC3)nn2c1N(C)c1nc(-c2ccc(F)cc2)cs1 [Cpd 77, N-(2-ethyl-6-(3-azaspiro[5.5]undecan-3-yl)imidazo[1,2-b]pyridazin-3-yl)-4-(4-fluorophenyl)-N-methylthiazol-2-amine]
20 | > 1000 | CCc1nc2ccc(N3CCC(CNS(C)(=O)=O)CC3)nn2c1N(C)c1nc(-c2ccc(F)cc2)cs1 [Cpd 105, N-((1-(2-ethyl-3-((4-(4-fluorophenyl)thiazol-2-yl)(methyl)amino)imidazo[1,2-b]pyridazin-6-yl)piperidin-4-yl)methyl) methanesulfonamide]
21 | > 1000 | CCc1nc2ccc(N3CCN(CCNC(=O)OC(C)(C)C)CC3)nn2c1N(C)c1nc(-c2ccc(F)cc2)cs1 [Cpd 56, tert-butyl 2-(4-(2-ethyl-3-((4-(4-fluorophenyl)thiazol-2-yl)(methyl)amino)imidazo[1,2-b]pyridazin-6-yl)piperazin-1-yl)ethylcarbamate]
22 | > 1000 | CCc1nc2ccc(N3CCN(CC(=O)N4C(C)CCC4C)CC3)nn2c1N(C)c1nc(-c2ccc(F)cc2)cs1 (stereo not drawn) [Cpd 32, 1-(2,5-dimethylpyrrolidin-l-yl)-2-(4-(2-ethyl-3-((4-(4-fluorophenyl)thiazol-2-yl)(methyl)amino)imidazo[1,2-b]pyridazin-6-yl)piperazin-1-yl)ethanone]
23 | > 1000 | CCc1nc2ccc(N3CCCC(N4CCC(O)CC4)C3)nn2c1N(C)c1nc(-c2ccc(F)cc2)cs1 (stereo not drawn) [Cpd 112, l′-(2-ethyl-3-((4-(4-fluorophenyl)thiazol-2-yl)(methyl)amino)imidazo[1,2-b]pyridazin-6-yl)-1,3′-bipiperidin-4-ol]
24 | > 1000 | CCc1nc2ccc(N3CCC(N(C)C)CC3)nn2c1N(C)c1nc(-c2ccc(F)cc2)cs1 [Cpd 80, N-(6-(4-(dimethylamino)piperidin-1-yl)-2-ethylimidazo[1,2-b]pyridazin-3-yl)-4-(4-fluorophenyl)-N-methylthiazol-2-amine]
25 | > 1000 | CCc1nc2ccc(N3CCN4C(=O)COC[C@@H]4C3)nn2c1N(C)c1nc(-c2ccc(F)cc2)cs1 [Compound 66, (S)-8-(2-ethyl-3-((4-(4-fluorophenyl)thiazol-2-yl)(methyl)amino)imidazo[1,2-b]pyridazin-6-yl)hexahydropyrazino[2,1-c][1,4]oxazin-4(1H)-one]
26 | 100 to 500 | CCc1nc2ccc(N3CCN(CC(=O)N4CCC4)CC3)nn2c1N(C)c1nc(-c2ccc(F)cc2)cs1 [Cpd 36, 1-(azetidin-1-yl)-2-(4-(2-ethyl-3-((4-(4-fluorophenyl)thiazol-2-yl)(methyl)amino)imidazo[1,2-b]pyridazin-6-yl)piperazin-1-yl)ethanone]
27 | 500 to 1000 | CCc1nc2ccc(N3CCC(NC(=O)N4CCCC4)CC3)nn2c1N(C)c1nc(-c2ccc(F)cc2)cs1 [Compound 89, N-(1-(2-ethyl-3-((4-(4-fluorophenyl)thiazol-2-yl)(methyl)amino)imidazo[1,2-b]pyridazin-6-yl)piperidin-4-yl)pyrrolidine-1-carboxamide]
